Experimental findings from patent US20150133426A1, “SUBSTITUTED PYRROLOPYRIMIDINES” (BAYER PHARMA AKTIENGESELLSCHAFT, priority 2012, published 2015) are described below.

Broadly, the IC50 is the concentration at which inhibition is half-maximal. Low readings indicate inhibition by little substance, high ones a need for much substance.

The target in this test is T1, human full-length MKNK1 (Homo sapiens, UniProt Q9BUB5, T385D).
T1 construct: purchased Carna Biosciences 02-145; host or cells: insect cells, baculovirus expression system
T1 sequence (Q9BUB5 1-424 isoform Q9BUB5-2 T344D): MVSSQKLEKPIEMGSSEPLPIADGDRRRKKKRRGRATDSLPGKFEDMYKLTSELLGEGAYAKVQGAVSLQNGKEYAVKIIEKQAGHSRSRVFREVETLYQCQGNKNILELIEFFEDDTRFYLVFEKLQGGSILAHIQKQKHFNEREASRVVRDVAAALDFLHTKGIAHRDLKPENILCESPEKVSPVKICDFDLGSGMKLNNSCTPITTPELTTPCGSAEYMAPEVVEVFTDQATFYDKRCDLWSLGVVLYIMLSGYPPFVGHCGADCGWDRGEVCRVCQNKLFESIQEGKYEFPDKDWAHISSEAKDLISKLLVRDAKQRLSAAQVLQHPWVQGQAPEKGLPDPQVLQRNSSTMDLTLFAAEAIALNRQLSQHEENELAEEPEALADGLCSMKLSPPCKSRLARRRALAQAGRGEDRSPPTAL
Briefly: MKNK1 kinase high ATP assay (TR-FRET). Type of test: biochemical. The following applies: high ATP (2 mM), 15 min preincubation with enzyme, GST-MKNK1 (T344D). Put shortly: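 GST-tagged full-length human MKNK1 (aa 1-424, T344D), baculovirus-expressed, preincubated 15 min with compound, then reacted 30 min at 22 °C with 2 mM ATP and 0.06 µM biotinylated peptide (final).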
(Time-resolved FRET reads energy transfer from a long-lived donor to a nearby acceptor.)
Regarding `COc1cc2[nH]ncc2cc1Nc1ncnc2[nH]c3c(c12)CCCC3` [Example 112], the IC50 worked out at 6 nM. This counts as single-digit nanomolar.
With `Nc1ccc2c(c1)CCN2c1ncnc2[nH]c3c(c12)CCCC3` [Example 113] the figure was 683 nM; with `Clc1ccc(Nc2ncnc3[nH]c4c(c23)CCCC4)cc1Cl` [Example 114], 1490 nM.
Compound `O=c1[nH]c2ccc(Nc3ncnc4[nH]c5c(c34)CCCC5)cc2[nH]1` [Example 115] gave an IC50 of 1790 nM.
To `c1ccc(OC2CCCC2)c(Nc2ncnc3[nH]c4c(c23)CCCC4)c1` [Example 116] belongs at least 20000 nM.
To `O=c1[nH]c2ccc(Nc3ncnc4[nH]c5c(c34)CCCC5)cc2s1` [Example 117] belongs 58 nM; to `c1ccc(N2CCOCC2)c(Nc2ncnc3[nH]c4c(c23)CCCC4)c1` [Example 118], at least 20000 nM; to `COc1ccc(C(F)(F)F)cc1Nc1ncnc2[nH]c3c(c12)CCCC3` [Example 119], at least 20000 nM.
To `c1ccc2c(c1)CCN2c1ncnc2[nH]c3c(c12)CCCC3` [Example 120] belongs 8350 nM.
`O=[N+]([O-])c1ccc2c(c1)N(c1ncnc3[nH]c4c(c13)CCCC4)CC2` [Example 121] displayed an IC50 of at least 20000 nM.
Take `Clc1ccc2c(c1)CCN2c1ncnc2[nH]c3c(c12)CCCC3` [Example 122]: the half-maximal inhibitory concentration (IC50) stood at 4290 nM.
With `O=[N+]([O-])c1ccc2c(c1)CCN2c1ncnc2[nH]c3c(c12)CCCC3` [Example 123] the figure was 1550 nM; with `CC(C)Oc1ccc(Cl)cc1Nc1ncnc2[nH]c3c(c12)CCCC3` [Example 124], 1740 nM; with `COc1ccc(Cl)cc1Nc1ncnc2[nH]c3c(c12)CCCC3` [Example 125], 104 nM.
Compound `CC(C)Oc1cc2[nH]ncc2cc1Nc1ncnc2[nH]c3c(c12)CCCC3` [Example 126] registered an IC50 of 5 nM. This IC50 lies about 21-fold lower than the previous one.
With `CC(C)Oc1ccc(Br)cc1Nc1ncnc2[nH]c3c(c12)CCCC3` [Example 127] the figure was 6270 nM; with `COc1ccc(Br)cc1Nc1ncnc2[nH]c3c(c12)CCCC3` [Example 128], 313 nM.
To `COc1cc(NS(C)(=O)=O)ccc1Nc1ncnc2[nH]c3c(c12)CCCC3` [Example 129] belongs 4050 nM; to `c1ccc(OC2CCOCC2)c(Nc2ncnc3[nH]c4c(c23)CCCC4)c1` [Example 130, N-[2-(tetrahydro-2H-pyran-4-yloxy)phenyl]-6,7,8,9-tetrahydro-5H-pyrimido[4,5-b]indol-4-amine], 89 nM.
With `COc1cc2[nH]ncc2cc1Nc1ncnc2[nH]c3c(c12)CC(F)(F)CC3` [Example 141] the figure was 6 nM; with `O=c1[nH]c2ccc(Nc3ncnc4[nH]c5c(c34)CC(F)(F)CC5)cc2s1` [Example 142], 38 nM.
As to `CC(C)Oc1ccc(Cl)cc1Nc1ncnc2[nH]c3c(c12)CC(F)(F)CC3` [Example 143], the midpoint of inhibition, the IC50, lay at 407 nM.
With `COc1ccc(Cl)cc1Nc1ncnc2[nH]c3c(c12)CC(F)(F)CC3` [Example 144] the figure was at least 20000 nM.
With `COc1ccc(C(F)(F)F)cc1Nc1ncnc2[nH]c3c(c12)CC(F)(F)CC3` [Example 145] the figure was at least 20000 nM; with `CC(C)Oc1cc2[nH]ncc2cc1Nc1ncnc2[nH]c3c(c12)CC(F)(F)CC3` [Example 232, 6,6-Difluoro-N-[6-(propan-2-yloxy)-1H-indazol-5-yl]-6,7,8,9-tetrahydro-5H-pyrimido[4,5-b]indol-4-amine], 5 nM.
Turning to `O=c1[nH]c2cc(Cl)c(Nc3ncnc4[nH]c5c(c34)CCCC5)cc2s1` [Example 236, 5-Chloro-6-(6,7,8,9-tetrahydro-5H-pyrimido[4,5-b]indol-4-ylamino)-1,3-benzothiazol-2(3H)-one], the half-maximal inhibitory concentration (IC50) came to 55 nM.
`COc1cc2[nH]c(=O)sc2cc1Nc1ncnc2[nH]c3c(c12)CC(F)(F)CC3` [Example 238, 6-[(6,6-Difluoro-6,7,8,9-tetrahydro-5H-pyrimido[4,5-b]indol-4-yl)amino]-5-methoxy-1,3-benzothiazol-2(3H)-one] had an IC50 of 10 nM.
